Results taken from ChEMBL document CHEMBL1201862, “PubChem BioAssay data set” (2004).
The source made the active and inactive calls.

Assays:
T-cell = assay: loss of vesicle association with mouse CD8+ T cells – mouse 2C CD8+ T cells, flow cytometry, dose response (AID 485284); format: functional
[1] = molecular target: Type-1 angiotensin II receptor (Homo sapiens, UniProt P30556); assay: agonist activity at AGTR1 – cell-based, uHTS hits, selectivity assay for APJ receptor agonist project, dose response (AID 488865); format: functional;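 also: beta-arrestin recruitment to AT1 measured by enzyme fragment complementation luminescence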
Chain of Type-1 angiotensin II receptor (P30556 whole entry, the tested form may be a part): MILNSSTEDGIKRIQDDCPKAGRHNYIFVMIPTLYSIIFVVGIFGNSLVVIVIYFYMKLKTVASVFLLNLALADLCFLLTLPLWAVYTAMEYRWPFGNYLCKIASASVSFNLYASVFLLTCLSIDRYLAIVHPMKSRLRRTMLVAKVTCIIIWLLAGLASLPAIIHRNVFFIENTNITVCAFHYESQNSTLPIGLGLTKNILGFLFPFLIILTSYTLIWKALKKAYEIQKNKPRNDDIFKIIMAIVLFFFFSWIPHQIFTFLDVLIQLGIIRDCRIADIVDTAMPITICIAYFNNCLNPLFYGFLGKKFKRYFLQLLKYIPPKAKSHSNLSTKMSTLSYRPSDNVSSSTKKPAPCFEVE

[2] = molecular target: T1, High affinity choline transporter 1 (Homo sapiens, UniProt Q9GZV3); assay: human choline transporter blockers, potency – cell-based, 5-point CRC, membrane potential dye, dose response (AID 504840); format: functional
T1 sequence (Q9GZV3 whole entry): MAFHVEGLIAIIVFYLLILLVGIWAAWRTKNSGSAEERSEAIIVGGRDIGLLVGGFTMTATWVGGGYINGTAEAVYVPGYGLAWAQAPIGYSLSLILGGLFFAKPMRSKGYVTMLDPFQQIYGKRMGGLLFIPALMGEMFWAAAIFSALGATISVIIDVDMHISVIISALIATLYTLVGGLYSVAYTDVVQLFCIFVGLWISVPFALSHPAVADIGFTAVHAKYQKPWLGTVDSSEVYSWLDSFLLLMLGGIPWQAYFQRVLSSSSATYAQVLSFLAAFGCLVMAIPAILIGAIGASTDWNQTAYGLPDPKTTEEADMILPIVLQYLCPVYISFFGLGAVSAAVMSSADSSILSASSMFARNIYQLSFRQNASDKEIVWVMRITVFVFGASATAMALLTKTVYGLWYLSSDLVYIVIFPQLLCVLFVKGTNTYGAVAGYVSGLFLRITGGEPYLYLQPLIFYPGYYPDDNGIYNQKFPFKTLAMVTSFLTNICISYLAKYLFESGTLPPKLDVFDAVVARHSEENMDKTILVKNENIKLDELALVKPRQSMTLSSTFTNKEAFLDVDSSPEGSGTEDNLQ

[3] = HPDE-C7 pancreatic duct cell viability loss – fluorescence, HTS (AID 430); format: functional, cell-based; settings: Homo sapiens
[4] = molecular target: T2, Short transient receptor potential channel 4 (Mus musculus, UniProt Q9QUQ5); assay: calcium entry via TRPC4 opening agents – cell-based, HEK293 TRPC4/mu-opioid, Fluo-4 calcium, dose response (AID 434937); format: functional
T2 sequence (Q9QUQ5 whole entry): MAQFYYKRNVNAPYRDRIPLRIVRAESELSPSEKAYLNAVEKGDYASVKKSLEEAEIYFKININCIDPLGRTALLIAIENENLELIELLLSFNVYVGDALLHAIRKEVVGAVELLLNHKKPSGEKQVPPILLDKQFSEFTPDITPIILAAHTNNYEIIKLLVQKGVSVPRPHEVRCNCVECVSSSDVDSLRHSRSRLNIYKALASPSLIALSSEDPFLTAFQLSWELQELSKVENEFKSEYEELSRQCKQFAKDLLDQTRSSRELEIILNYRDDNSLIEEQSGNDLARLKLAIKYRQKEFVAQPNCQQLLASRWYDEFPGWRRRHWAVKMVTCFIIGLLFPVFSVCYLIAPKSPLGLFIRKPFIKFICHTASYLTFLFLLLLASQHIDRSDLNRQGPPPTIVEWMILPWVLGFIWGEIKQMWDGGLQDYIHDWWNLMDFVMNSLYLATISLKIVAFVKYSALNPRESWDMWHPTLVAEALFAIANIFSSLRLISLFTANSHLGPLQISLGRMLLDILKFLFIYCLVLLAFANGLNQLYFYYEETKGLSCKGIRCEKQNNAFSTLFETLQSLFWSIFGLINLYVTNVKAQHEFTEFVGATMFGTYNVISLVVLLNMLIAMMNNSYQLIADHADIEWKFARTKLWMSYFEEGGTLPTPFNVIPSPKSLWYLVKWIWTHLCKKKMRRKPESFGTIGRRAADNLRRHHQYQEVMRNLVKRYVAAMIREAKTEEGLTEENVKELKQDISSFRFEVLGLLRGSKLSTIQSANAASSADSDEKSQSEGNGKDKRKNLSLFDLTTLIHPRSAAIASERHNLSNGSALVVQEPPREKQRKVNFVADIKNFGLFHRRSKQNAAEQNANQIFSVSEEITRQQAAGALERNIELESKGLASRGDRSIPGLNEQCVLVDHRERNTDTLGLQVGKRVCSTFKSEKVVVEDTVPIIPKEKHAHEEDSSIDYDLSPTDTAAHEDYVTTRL

[5] = viability loss of HPDE-C7K cells – cell-based, fluorescence, HTS, primary screen (AID 431); format: functional; settings: Homo sapiens
[6] = molecular target: T3, Heat shock factor protein 1 (Mus musculus, UniProt P38532); assay: enhancement of HSF1-driven luciferase signal – cell-based, NIH3T3, luminescence, dose retest, confirmation (AID 435004); format: functional;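 also: stress induced by proteasome inhibitor MG132 added 30 min after compound; luciferase reporter driven by HSF1 response element in NIH3T3 cells; actives raise luminescence as potentiators of the MG132 stress response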
T3 sequence (P38532 whole entry): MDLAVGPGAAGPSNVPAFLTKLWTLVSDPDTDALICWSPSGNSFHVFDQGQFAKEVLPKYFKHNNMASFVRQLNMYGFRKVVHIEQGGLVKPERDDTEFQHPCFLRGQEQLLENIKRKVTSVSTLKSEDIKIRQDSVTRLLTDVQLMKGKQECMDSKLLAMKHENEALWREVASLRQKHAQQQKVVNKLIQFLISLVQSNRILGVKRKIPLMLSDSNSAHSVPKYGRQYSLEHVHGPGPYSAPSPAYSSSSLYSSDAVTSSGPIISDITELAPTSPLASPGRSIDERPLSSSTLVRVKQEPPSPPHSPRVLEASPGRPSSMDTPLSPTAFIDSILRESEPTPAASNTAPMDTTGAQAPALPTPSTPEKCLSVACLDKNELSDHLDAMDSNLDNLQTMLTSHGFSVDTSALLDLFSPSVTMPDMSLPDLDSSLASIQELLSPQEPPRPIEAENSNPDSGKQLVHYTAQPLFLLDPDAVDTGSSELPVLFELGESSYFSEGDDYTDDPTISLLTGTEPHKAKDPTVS

[7] = molecular target: T2, Short transient receptor potential channel 4; assay: potentiation of DAMGO-evoked TRPC4 calcium signal – cell-based, HEK293 TRPC4/mu-opioid, Fluo-4 calcium, EC20 DAMGO, dose response (AID 434941); format: functional
[8] = molecular target: T4, Corticotropin-releasing factor receptor 2/Corticotropin-releasing factor-binding protein (Homo sapiens, UniProt P24387+Q13324); assay: activators of CRF receptor 2 with binding protein – uHTS hits, confirmation (AID 602473); format: functional; settings: read-out: EC50_Mean
T4 sequence (Q13324 whole entry): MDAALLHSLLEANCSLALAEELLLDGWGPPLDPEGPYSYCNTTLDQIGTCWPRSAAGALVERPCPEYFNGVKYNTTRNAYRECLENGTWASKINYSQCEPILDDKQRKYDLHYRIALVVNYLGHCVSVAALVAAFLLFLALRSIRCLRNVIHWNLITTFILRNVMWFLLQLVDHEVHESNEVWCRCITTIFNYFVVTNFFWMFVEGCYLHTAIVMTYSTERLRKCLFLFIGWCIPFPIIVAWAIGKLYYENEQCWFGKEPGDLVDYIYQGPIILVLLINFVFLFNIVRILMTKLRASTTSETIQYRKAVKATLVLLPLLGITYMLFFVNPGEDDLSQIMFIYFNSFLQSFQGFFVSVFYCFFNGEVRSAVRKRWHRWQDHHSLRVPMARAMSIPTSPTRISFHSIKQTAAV
T4 sequence (P24387 whole entry): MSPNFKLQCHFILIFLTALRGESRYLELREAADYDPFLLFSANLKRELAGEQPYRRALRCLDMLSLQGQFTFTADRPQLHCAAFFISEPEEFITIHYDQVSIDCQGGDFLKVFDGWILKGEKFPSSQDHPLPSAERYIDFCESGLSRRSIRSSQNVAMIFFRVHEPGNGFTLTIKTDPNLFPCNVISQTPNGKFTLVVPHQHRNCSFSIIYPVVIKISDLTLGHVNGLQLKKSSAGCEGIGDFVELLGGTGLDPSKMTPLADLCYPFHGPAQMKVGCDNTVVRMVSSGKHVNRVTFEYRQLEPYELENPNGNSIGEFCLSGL

[9] = molecular target: Envelope glycoprotein gp160 (Human immunodeficiency virus 1, UniProt Q6QLK5); assay: cell-free HIV fusion peptide-binding blockers – biochemical, uHTS, fluorescence dequenching, […] (AID 1986)
Chain of Envelope glycoprotein gp160 (Q6QLK5 whole entry, the tested form may be a part): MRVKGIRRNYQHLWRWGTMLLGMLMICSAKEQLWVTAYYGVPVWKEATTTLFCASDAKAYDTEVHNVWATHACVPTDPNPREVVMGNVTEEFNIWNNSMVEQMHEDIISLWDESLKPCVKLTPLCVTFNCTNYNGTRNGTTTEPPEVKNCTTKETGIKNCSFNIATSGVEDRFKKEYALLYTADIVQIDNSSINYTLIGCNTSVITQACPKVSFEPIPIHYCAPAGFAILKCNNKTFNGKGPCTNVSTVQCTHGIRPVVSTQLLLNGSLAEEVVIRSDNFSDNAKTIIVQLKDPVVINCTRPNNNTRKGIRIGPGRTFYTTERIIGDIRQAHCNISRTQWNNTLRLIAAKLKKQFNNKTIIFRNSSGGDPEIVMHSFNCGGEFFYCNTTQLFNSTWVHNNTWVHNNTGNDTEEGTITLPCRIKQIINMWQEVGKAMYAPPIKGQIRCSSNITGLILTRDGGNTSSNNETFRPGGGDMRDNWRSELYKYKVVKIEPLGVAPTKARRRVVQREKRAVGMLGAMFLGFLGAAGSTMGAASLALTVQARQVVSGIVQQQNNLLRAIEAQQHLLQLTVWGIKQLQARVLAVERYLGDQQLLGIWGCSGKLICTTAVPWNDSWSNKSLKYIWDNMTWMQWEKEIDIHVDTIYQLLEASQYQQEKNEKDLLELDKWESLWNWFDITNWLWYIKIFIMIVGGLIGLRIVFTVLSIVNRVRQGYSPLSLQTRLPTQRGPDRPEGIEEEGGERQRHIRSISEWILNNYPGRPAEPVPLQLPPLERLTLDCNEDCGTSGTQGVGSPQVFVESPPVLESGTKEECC

H4 = assay: Luminescence Cell-Based Dose Response HTS to Identify Activators of 5'UTR Stem-Loop Driven Prion Protein mRNA Translation in H4 Neuroglioblastoma Cells. [Related pubchem assays: 1829 (Project Summary), 1814 (Primary HTS)]; format: functional; settings: Homo sapiens
[10] = molecular target: T4, Corticotropin-releasing factor receptor 2/Corticotropin-releasing factor-binding protein; assay: Dose Response confirmation of uHTS hits for small molecule antagonists of the CRF-binding protein and CRF-R2 receptor complex.; format: functional; settings: read-out: IC50_Mean
[11] = blockers of CRF-binding protein–CRF-R2 complex – cell-based, uHTS hits, 384-well, dose response (AID 651639); format: functional, Homo sapiens; settings: read-out: IC50_Mean
[12] = Luminescence Cell-Based Dose Confirmation HTS to Identify Activators of 5'UTR Stem-Loop Driven Alpha-Synuclein mRNA Translation in H4 Neuroglioblastoma Cells. [Related pubchem assays: 1829 (Project Summary), 1814 (Primary HTS)]; format: functional
[13] = Luminescence Cell-Based Dose Response HTS to Identify Activators of Luciferase Translation or Activity in H4 […] Cells. [Related pubchem assays: 1829 (Project Summary), 1814 (Primary HTS)]; format: functional
Hexokinase = Hexokinase (Trypanosoma brucei, UniProt Q38C41); assay: Confirmation assay for inhibitors of Trypanosoma brucei hexokinase 1-Analogue-first series. [Related pubchem assays (depositor defined):AID1430, AID1632, AID2516, AID2560, AID2579, AID2600, AID449725, AID492951]; format: functional
Chain of Hexokinase (Q38C41 whole entry): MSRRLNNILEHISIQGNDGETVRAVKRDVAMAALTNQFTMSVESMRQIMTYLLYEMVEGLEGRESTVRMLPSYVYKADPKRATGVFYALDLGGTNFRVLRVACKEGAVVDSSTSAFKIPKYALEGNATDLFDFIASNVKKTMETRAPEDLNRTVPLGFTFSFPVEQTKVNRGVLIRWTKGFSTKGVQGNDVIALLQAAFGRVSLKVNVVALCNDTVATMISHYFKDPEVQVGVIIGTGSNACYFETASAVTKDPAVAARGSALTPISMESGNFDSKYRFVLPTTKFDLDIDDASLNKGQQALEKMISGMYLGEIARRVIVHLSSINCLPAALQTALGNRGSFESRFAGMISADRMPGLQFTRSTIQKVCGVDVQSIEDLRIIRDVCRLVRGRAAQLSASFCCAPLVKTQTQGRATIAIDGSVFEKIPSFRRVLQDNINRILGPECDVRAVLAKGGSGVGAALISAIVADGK

[14] = molecular target: T5, Tyrosine-protein phosphatase non-receptor type 7 (Homo sapiens, UniProt P35236); assay: SAR analysis of chemical inhibitors of HePTP using a Fluorescent assay - Set 2. [Related pubchem assays (depositor defined):AID1059, AID1077, AID1661, AID2085, AID521]; format: functional
T5 sequence (P35236 whole entry): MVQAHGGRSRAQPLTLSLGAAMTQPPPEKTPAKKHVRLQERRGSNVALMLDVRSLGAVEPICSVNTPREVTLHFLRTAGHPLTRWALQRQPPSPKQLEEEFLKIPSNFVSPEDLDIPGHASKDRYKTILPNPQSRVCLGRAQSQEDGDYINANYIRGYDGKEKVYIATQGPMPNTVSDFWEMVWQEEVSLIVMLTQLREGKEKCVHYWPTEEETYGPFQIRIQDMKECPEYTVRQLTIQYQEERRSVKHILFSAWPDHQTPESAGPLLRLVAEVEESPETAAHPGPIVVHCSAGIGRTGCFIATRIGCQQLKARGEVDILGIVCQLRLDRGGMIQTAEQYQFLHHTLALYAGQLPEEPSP

[15] = molecular target: Dual specificity protein phosphatase 3 (Homo sapiens, UniProt P51452); assay: SAR VHR1 Fluorescent Assay for In Vitro dose response studies Set 2. [Related pubchem assays (depositor defined):AID1654, AID1661, AID1878]; format: functional
Chain of Dual specificity protein phosphatase 3 (P51452 whole entry): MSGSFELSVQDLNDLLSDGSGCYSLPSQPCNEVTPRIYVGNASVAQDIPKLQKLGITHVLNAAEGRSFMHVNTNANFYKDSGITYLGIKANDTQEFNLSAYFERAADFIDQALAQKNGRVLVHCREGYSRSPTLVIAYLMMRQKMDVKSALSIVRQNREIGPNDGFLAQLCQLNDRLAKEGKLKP

[16] = molecular target: T6, Sphingosine 1-phosphate receptor 4 (Homo sapiens, UniProt O95977); assay: potency of S1P4 activators – cell-based, fluorescence, synthesized compounds, late-stage follow-up (AID 463107); format: functional
T6 sequence (O95977 whole entry): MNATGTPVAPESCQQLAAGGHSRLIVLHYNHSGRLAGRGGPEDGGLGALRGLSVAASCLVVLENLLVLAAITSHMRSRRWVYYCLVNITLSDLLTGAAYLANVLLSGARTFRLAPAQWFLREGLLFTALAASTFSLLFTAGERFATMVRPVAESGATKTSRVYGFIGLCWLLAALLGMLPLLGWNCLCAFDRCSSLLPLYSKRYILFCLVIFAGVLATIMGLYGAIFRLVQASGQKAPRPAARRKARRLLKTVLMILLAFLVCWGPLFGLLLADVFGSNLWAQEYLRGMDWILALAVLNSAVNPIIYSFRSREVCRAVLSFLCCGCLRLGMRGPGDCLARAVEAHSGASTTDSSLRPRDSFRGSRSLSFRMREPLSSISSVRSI

Mucolipin-3 = Mucolipin-3 (Homo sapiens, UniProt Q8TDD5); assay: Fluorescence counterscreen assay for […] agonists: dose response cell-based high-throughput screening assay to identify agonists of the transient receptor potential channel ML3 (TRPML3). [Related pubchem assays: 1424, 1448 ]; format: functional
Chain of Mucolipin-3 (Q8TDD5 whole entry): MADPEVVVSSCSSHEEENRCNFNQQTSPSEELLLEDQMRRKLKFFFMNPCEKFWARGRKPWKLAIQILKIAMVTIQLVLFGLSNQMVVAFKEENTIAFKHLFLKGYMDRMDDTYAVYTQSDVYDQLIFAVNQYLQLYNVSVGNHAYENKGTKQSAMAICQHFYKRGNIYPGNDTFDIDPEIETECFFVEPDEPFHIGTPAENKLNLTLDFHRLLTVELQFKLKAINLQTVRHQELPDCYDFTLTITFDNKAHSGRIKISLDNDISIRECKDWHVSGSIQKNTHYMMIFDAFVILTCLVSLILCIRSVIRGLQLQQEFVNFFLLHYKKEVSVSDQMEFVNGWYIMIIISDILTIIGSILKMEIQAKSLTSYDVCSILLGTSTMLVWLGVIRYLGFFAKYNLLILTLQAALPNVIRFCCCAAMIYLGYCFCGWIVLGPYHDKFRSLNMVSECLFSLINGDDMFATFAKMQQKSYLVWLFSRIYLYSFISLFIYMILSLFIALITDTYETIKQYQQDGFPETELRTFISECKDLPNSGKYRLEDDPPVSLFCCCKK

Ion channel NompC = Ion channel NompC (Danio rerio, UniProt Q7T1G6); assay: Dose response cell-based high-throughput screening assay for agonists of the transient receptor potential channel N1 (TRPN1). [Related pubchem assays (depositor defined):AID1424, AID1448]; format: functional
Chain of Ion channel NompC (Q7T1G6 whole entry, the tested form may be a part): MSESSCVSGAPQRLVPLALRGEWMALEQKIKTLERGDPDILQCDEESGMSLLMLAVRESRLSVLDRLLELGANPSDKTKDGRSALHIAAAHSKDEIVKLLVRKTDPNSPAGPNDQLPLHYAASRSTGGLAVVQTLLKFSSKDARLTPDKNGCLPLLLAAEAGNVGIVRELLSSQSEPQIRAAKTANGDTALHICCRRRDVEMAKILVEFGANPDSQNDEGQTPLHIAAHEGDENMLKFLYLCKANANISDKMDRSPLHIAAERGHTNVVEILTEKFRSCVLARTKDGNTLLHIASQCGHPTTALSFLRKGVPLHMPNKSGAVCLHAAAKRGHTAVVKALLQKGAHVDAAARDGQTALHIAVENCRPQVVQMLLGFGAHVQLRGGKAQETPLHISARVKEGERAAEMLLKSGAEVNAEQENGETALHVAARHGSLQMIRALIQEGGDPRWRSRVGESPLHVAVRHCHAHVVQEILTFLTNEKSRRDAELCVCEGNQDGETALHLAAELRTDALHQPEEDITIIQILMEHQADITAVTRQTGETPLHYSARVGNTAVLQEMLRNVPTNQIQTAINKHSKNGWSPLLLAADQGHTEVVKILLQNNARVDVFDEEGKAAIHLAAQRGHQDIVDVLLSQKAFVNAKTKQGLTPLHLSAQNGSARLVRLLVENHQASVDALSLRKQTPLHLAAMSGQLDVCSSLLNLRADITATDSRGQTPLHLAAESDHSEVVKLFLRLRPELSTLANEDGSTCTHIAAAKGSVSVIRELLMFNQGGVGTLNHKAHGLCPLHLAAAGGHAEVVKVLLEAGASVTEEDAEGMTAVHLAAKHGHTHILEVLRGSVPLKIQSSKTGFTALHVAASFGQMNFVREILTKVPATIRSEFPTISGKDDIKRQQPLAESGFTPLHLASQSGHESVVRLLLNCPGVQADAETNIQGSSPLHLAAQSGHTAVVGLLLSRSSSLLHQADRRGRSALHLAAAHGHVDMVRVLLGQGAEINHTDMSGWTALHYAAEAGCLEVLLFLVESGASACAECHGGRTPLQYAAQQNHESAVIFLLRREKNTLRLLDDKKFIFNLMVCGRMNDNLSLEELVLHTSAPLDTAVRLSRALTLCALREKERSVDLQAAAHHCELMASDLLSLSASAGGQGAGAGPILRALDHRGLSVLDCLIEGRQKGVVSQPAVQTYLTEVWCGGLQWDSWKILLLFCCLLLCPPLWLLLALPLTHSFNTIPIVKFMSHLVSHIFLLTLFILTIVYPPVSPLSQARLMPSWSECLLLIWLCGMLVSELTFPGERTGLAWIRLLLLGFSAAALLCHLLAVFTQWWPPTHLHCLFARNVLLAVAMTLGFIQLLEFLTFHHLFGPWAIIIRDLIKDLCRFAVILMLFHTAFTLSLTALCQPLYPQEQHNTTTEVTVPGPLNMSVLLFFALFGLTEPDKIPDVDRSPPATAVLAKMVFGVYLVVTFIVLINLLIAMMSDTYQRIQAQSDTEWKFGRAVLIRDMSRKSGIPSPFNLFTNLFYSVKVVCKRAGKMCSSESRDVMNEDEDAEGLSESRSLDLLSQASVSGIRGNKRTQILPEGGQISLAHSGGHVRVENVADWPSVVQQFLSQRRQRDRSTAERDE

[17] = molecular target: Photoreceptor-specific nuclear receptor (Homo sapiens, UniProt Q9Y5X4); format: functional, cell-based;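 also: CHO-S cells with Gal4-NCOR and VP16-NR2E3 two-hybrid luciferase reporter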
Chain of Photoreceptor-specific nuclear receptor (Q9Y5X4 whole entry, the tested form may be a part): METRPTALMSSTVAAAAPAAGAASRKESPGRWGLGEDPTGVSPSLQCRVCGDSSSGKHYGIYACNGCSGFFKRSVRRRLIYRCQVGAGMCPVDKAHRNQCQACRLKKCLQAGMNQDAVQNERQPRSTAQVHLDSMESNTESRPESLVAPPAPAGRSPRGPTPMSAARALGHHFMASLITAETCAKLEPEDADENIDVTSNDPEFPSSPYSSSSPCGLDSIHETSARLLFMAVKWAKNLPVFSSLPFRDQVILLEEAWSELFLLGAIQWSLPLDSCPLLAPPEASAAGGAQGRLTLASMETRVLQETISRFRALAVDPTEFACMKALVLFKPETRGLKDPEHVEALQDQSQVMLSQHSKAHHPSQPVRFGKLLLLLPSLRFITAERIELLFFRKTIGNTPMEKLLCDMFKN

SMILES: O=C(NCCN1CCN(c2ccccc2)CC1)c1cccc(Br)c1
- EC50 (T-cell): 7.17 µM (active)

SMILES: CCCc1cc(C(=O)Nc2sc3c(c2C(=O)OCC)CCCC3)no1
- EC50 [1]: > 100 µM (inactive)

SMILES: CCCCc1cc(O)c(CCCC)c(O)c1
- IC50 [2]: 6.03 µM (active)
- EC50 [3]: 8.86 µM (active)
- EC50 [4]: 0.473 µM (active)
- EC50 [5]: 9.78 µM (active)
- EC50 [6]: 9.33 µM (active)
- EC50 [7]: 1.88 µM (active)

SMILES: CCS(=O)(=O)C1=NSC2=NC(=O)/C(=C\c3cc(C)n(-c4cccc(OC)c4)c3C)C(=N)N21
- EC50 [8]: > 53 µM (inactive)
- IC50 [9]: > 99 µM (inactive)
- EC50 (H4): > 120 µM (not active)
- IC50 [10]: 5.1 µM (active)
- IC50 [11]: 6.75 µM (active)
- EC50 [12]: > 120 µM (not active)
- EC50 [13]: > 120 µM (not active)

SMILES: O=C(Nc1cc(Cl)ccc1C(=O)O)c1ccc(C(F)(F)F)cc1
- IC50 (Hexokinase): > 25 µM (inactive)

SMILES: S=C(Nc1ccccc1)N1CCN(Cc2ccc3c(c2)OCO3)CC1
- IC50 [14]: > 100 µM (inactive)
- IC50 [15]: > 100 µM (inactive)

SMILES: COCc1ccc(OCCOc2ccc(Cl)cc2Cl)c(Cl)n1
- EC50 [16]: 12 µM (inactive)

SMILES: N#C/C(=N\Nc1ccc(Cl)c(Cl)c1)C(=O)C1CC1
- EC50 (Mucolipin-3): > 29.9 µM (not active)
- EC50 (Ion channel NompC): > 9.97 µM (inactive)
- IC50 [17]: 1.29 µM (active)
